Experimental data reported in publication PMC8286840, “Identifying SARS-CoV-2 antiviral compounds by screening for small molecule inhibitors of Nsp3 papain-like protease” (Biochemical Journal, 2021).
Where a name gives a salt, the structure may show the parent alone. Read-outs that look alike come from different tables or passages of the source. Where a SMILES comes first, the peptide text is derived from it.

What was measured:
[1] = molecular target: T1, SARS-CoV-2 PLpro (nsp3 1564–1878) (Severe acute respiratory syndrome coronavirus 2, UniProt P0DTD1); test: biochemical; parameters: FRET-quenched peptide (Pro3) cleavage by PLpro, 10 min pre-incubation, slope over 20 min, normalised to no-compound control; settings: low concentration screen, read-out: % of control remaining
[2] = molecular target: T1, SARS-CoV-2 PLpro (nsp3 1564–1878); test: biochemical; parameters: FRET-quenched peptide (Pro3) cleavage by PLpro, 10 min pre-incubation, slope over 20 min, normalised to no-compound control; settings: high concentration screen, read-out: % of control remaining

SMILES: C=C1[C@@H](C)[C@H]2[C@H](Cc3ccccc3)NC(=O)[C@]23[C@H](OC(C)=O)/C=C/[C@@](C)(O)C(=O)[C@@H](C)C/C=C/[C@H]3[C@@H]1O [Cytochalasin D]
- remaining activity at 1.25 µM ([1]; Well no.=3581): 98.2%
- remaining activity at 3.75 µM ([2]; Well no.=3581): 99.7%

SMILES: C[C@H]1COc2c(C3(N)CC3)c(F)cc3c(=O)c(C(=O)O)cn1c23 [Pazufloxacin]
- remaining activity at 1.25 µM ([1]; Well no.=2095): 97.7%
- remaining activity at 3.75 µM ([2]; Well no.=2095): 98.2%

SMILES: CCCCC(=O)O[C@]1(C(=O)CO)[C@@H](C)C[C@H]2[C@@H]3CCC4=CC(=O)C=C[C@]4(C)[C@@]3(F)[C@@H](O)C[C@@]21C [Betamethasone valerate]
- remaining activity at 1.25 µM ([1]; Well no.=5651): 94.9%
- remaining activity at 3.75 µM ([2]; Well no.=5651): 97.2%

SMILES: CC[C@H](NC(=O)[C@H](C)NC)C(=O)N1C[C@@H](O)C[C@H]1Cc1c(-c2[nH]c3cc(F)ccc3c2C[C@@H]2C[C@H](O)CN2C(=O)[C@H](CC)NC(=O)[C@H](C)NC)[nH]c2cc(F)ccc12 [Birinapant]
- remaining activity at 1.25 µM ([1]; Well no.=6542): 95%
- remaining activity at 3.75 µM ([2]; Well no.=6542): 75.1%

SMILES: Cc1noc(NS(=O)(=O)c2ccc(N)cc2)c1C [Sulfisoxazole]
- remaining activity at 1.25 µM ([1]; Well no.=4664): 95.8%
- remaining activity at 1.25 µM ([1]; Well no.=7548): 104%
- remaining activity at 1.25 µM ([1]; Well no.=8283): 97.8%
- remaining activity at 3.75 µM ([2]; Well no.=4664): 97.2%
- remaining activity at 3.75 µM ([2]; Well no.=7548): 101%
- remaining activity at 3.75 µM ([2]; Well no.=8283): 97.6%

SMILES: Cc1ccc(NC2=CC(=O)c3sc(C)nc3C2=O)cc1 [Ryuvidine - 2-Methyl-5-[(4-methylphenyl)amino]-4,7-benzothiazoledione]
- remaining activity at 1.25 µM ([1]; Well no.=2584): 86.3%
- remaining activity at 3.75 µM ([2]; Well no.=2584): 85%

SMILES: OC[C@@H](O)[C@H]1NC[C@@H](O)[C@H]1O [1,4-Dideoxy-1,4-imino-D-mannitol hydrochloride]
- remaining activity at 1.25 µM ([1]; Well no.=536): 101%
- remaining activity at 3.75 µM ([2]; Well no.=536): 99.2%

SMILES: c1coc(CNc2ncnc3[nH]cnc23)c1 [Kinetin]
- remaining activity at 1.25 µM ([1]; Well no.=3358): 95.6%
- remaining activity at 3.75 µM ([2]; Well no.=3358): 97.3%

SMILES: COc1ccc(-c2cnc3c(-c4ccsc4)cnn3c2)cc1 [VEGF Receptor 2 Kinase Inhibitor IV]
- remaining activity at 1.25 µM ([1]; Well no.=2655): 95.2%
- remaining activity at 3.75 µM ([2]; Well no.=2655): 97%

SMILES: COC1=CC(=O)C[C@@H](C)[C@]12Oc1c(Cl)c(OC)cc(OC)c1C2=O [(+)-Griseofulvin]
- remaining activity at 1.25 µM ([1]; Well no.=3354): 88.9%
- remaining activity at 3.75 µM ([2]; Well no.=3354): 90.2%

SMILES: CCCCC/C=C\C/C=C\C/C=C\C=C\[C@H](CCCC(=O)O)OO [5(S)-HPETE]
- remaining activity at 1.25 µM ([1]; Well no.=4327): 106%
- remaining activity at 3.75 µM ([2]; Well no.=4327): 103%

SMILES: O=C(Nc1cccc2c(=O)cc(-c3nnn[nH]3)oc12)c1ccc(OCCCCc2ccccc2)cc1 [Pranlukast]
- remaining activity at 1.25 µM ([1]; Well no.=1720): 99.8%
- remaining activity at 1.25 µM ([1]; Well no.=7329): 103%
- remaining activity at 3.75 µM ([2]; Well no.=1720): 101%
- remaining activity at 3.75 µM ([2]; Well no.=7329): 98.4%

SMILES: NCc1cc(O)no1 [Muscimol hydrobromide]
- remaining activity at 1.25 µM ([1]; Well no.=556): 95.9%
- remaining activity at 3.75 µM ([2]; Well no.=556): 94.1%

SMILES: CC(C)CN(C[C@@H](OP(=O)(O)O)[C@H](Cc1ccccc1)NC(=O)O[C@H]1CCOC1)S(=O)(=O)c1ccc(N)cc1 [Fosamprenavir]
- remaining activity at 1.25 µM ([1]; Well no.=7846): 104%
- remaining activity at 3.75 µM ([2]; Well no.=7846): 102%

SMILES: O=C(O)Cc1ccc(O)c(O)c1 [3,4-Dihydroxyphenylacetic acid]
- remaining activity at 1.25 µM ([1]; Well no.=442): 103%
- remaining activity at 3.75 µM ([2]; Well no.=442): 104%

SMILES: Cc1onc(-c2ccccc2)c1-c1ccc(S(N)(=O)=O)cc1 [Valdecoxib]
- remaining activity at 1.25 µM ([1]; Well no.=4694): 97.5%
- remaining activity at 3.75 µM ([2]; Well no.=4694): 95.9%

SMILES: Nc1ccc(C(=O)O)c(O)c1 [Sodium 4-Aminosalicylate]
- remaining activity at 1.25 µM ([1]; Well no.=4974): 101%
- remaining activity at 3.75 µM ([2]; Well no.=4974): 95.6%

SMILES: COC(=O)CC(NC(=O)OC(C)(C)C)C(=O)CF [BOC-D-FMK]
- remaining activity at 1.25 µM ([1]; Well no.=6868): 95.7%
- remaining activity at 1.25 µM ([1]; Well no.=7644): 101%
- remaining activity at 3.75 µM ([2]; Well no.=6868): 93.9%
- remaining activity at 3.75 µM ([2]; Well no.=7644): 95.4%

SMILES: COc1ccc([C@@H]2Sc3ccccc3N(CCN(C)C)C(=O)[C@@H]2OC(C)=O)cc1 [Diltiazem]
- remaining activity at 1.25 µM ([1]; Well no.=1713): 104%
- remaining activity at 3.75 µM ([2]; Well no.=1713): 102%

SMILES: CCCCCCCCCCCCCCCC(=O)O [Hexadecanoic acid]
- remaining activity at 1.25 µM ([1]; Well no.=4302): 101%
- remaining activity at 3.75 µM ([2]; Well no.=4302): 97.2%

SMILES: N=C(N)NS(=O)(=O)c1ccc(N)cc1 [Sulfaguanidine]
- remaining activity at 1.25 µM ([1]; Well no.=7348): 93.5%
- remaining activity at 3.75 µM ([2]; Well no.=7348): 93.1%

SMILES: O=C(O)CCCc1ccc(N(CCCl)CCCl)cc1 [Chlorambucil]
- remaining activity at 1.25 µM ([1]; Well no.=327): 96.4%
- remaining activity at 1.25 µM ([1]; Well no.=2227): 99.2%
- remaining activity at 3.75 µM ([2]; Well no.=327): 98.4%
- remaining activity at 3.75 µM ([2]; Well no.=2227): 98.3%

SMILES: CC(C)[C@H](N)C(=O)N[C@@H](Cc1ccccc1)C(=O)O [L-Valyl-L-phenylalanine] (H-Val-Phe-OH)
- remaining activity at 1.25 µM ([1]; Well no.=8650): 103%
- remaining activity at 3.75 µM ([2]; Well no.=8650): 101%

SMILES: CCCN[C@H]1CCc2nc(N)sc2C1 [Pramipexole]
- remaining activity at 1.25 µM ([1]; Well no.=1983): 101%
- remaining activity at 3.75 µM ([2]; Well no.=1983): 104%

SMILES: Nc1ccn([C@@H]2CS[C@H](CO)O2)c(=O)n1 [Lamivudine]
- remaining activity at 1.25 µM ([1]; Well no.=8142): 100%
- remaining activity at 3.75 µM ([2]; Well no.=8142): 98.2%

SMILES: O=c1c(O)c(-c2ccccc2O)oc2cc(O)cc(O)c12 [Datiscetin]
- remaining activity at 1.25 µM ([1]; Well no.=3251): 95.3%
- remaining activity at 3.75 µM ([2]; Well no.=3251): 96.6%

SMILES: CC(C)(C)[C@@H]1NC(=O)O[C@@H]2CCC[C@H]2OC/C=C/C(F)(F)c2nc3ccccc3nc2O[C@@H]2C[C@@H](C(=O)N[C@]3(C(=O)NS(=O)(=O)C4(C)CC4)C[C@H]3C(F)F)N(C2)C1=O [Glecaprevir]
- remaining activity at 1.25 µM ([1]; Well no.=8512): 103%
- remaining activity at 3.75 µM ([2]; Well no.=8512): 93.8%

SMILES: O=C(O)Cc1ccccc1Nc1c(Cl)cccc1Cl [Diclofenac Potassium]
- remaining activity at 1.25 µM ([1]; Well no.=5307): 101%
- remaining activity at 3.75 µM ([2]; Well no.=5307): 100%

SMILES: O=S(=O)(c1cccc2cnccc12)N1CCCNCC1 [HA1077]
- remaining activity at 1.25 µM ([1]; Well no.=1669): 106%
- remaining activity at 3.75 µM ([2]; Well no.=1669): 106%

SMILES: CC(=O)[C@@]1(O)CC[C@H]2[C@@H]3CCC4=CC(=O)CCC4=C3[C@@H](c3ccc(N(C)C)cc3)C[C@@]21C [Ulipristal]
- remaining activity at 1.25 µM ([1]; Well no.=4929): 105%
- remaining activity at 3.75 µM ([2]; Well no.=4929): 104%

SMILES: CN1CCCCC1CCN1c2ccccc2Sc2ccc([S+](C)[O-])cc21 (stereo not shown) [Mesoridazine besylate]
- remaining activity at 1.25 µM ([1]; Well no.=2110): 97.7%
- remaining activity at 3.75 µM ([2]; Well no.=2110): 99.5%

SMILES: NCc1c[nH]c(=S)n1[C@H]1CCc2c(F)cc(F)cc2C1 [Nepicastat hydrochloride]
- remaining activity at 1.25 µM ([1]; Well no.=6033): 100%
- remaining activity at 3.75 µM ([2]; Well no.=6033): 102%

SMILES: CC(C)NCC(O)c1ccc(NS(C)(=O)=O)cc1 (racemic)
- remaining activity at 1.25 µM ([1]; Well no.=1212): 105%
- remaining activity at 3.75 µM ([2]; Well no.=1212): 103%
